# Columns and labels:
# [1] = target: T1, human 5-HT2B receptor (Homo sapiens, UniProt P41595); experiment: Cloned human 5-HT2B receptor binding assay, [3H]-5HT; details: HEK 293 cells transfected with human 5-HT2B receptor, read-out: Receptor Affinity: pK Values 5HT2B receptor (converted)
# T1 construct: expressed in transfected cells; host or cells: HEK 293 (transient)
# Protocol: The following describes an in vitro binding assay utilizing cloned 5-HT2B receptors radiolabelled with [^3H]-5HT. HEK 293 cells transiently transfected with an expression plasmid pXMD1-hu2B encoding the human 5-HT2B receptor (see Schmuck et al., FEBS Lett., 1994, 342, 85-90) were used as described previously (Schmuck et al., Eur. J. Pharmacol., 1996, 8, 959-967). Two days after transfection cells were harvested, pelleted at 500g for 5 min at 4°C, gently resuspended in ice-cold buffer1 (50 mM TRIS pH 7.7, 4 mM CaCl2) and homogenized using a Polytron PT 1200 tissue homogenizer (position 6 for 30 s). Cells were pelleted at 50,000g, 4°C for 10 min, washed with buffer1 and pelleted again. The final pellet was resuspended in incubation buffer (50 mM TRIS pH 7.7, 4 mM CaCl2, 10 µM pargyline and 0.1 % by weight ascorbic acid). The binding assay consisted of 300 µl of membrane suspension (protein concentration = 0.3 to 0.5 mg/ml), 150 µl of competing drug and 50 µl of [^3H]5-HT at a final concentration of 4 to 5 nM. The mixture was incubated at 37°C for 30 min and the assay terminated by rapid filtration and two washing steps with 5 ml of cold 20 mM Tris-HCl pH = 7.5, and 154 mM NaCl over Whatman GFB filters. Filters were counted by liquid scintillation. Non-specific binding was determined in the presence of an excess of 5-HT (100 µM). Bound radioligand represented less than 1 % of free radioligand. In competition experiments, specific binding represented about 60 % of total binding. Results expressed as pKi values are shown in Table 1 Human 5-HT2B receptors were labelled in HEK293 cells as described above, except that the radioligand was [^3H]-5HT and that the assay buffer contained pargyline in a concentration of […] and 0.1 % by weight of ascorbic acid. For competition binding studies the radioligand concentration was approximately 0.4 nM while for saturation binding studies the concentration of [^3H]-5HT ranged from 0.05 to 8 nM. Non-specific binding was defined with […]. Incubations were for 120 min at 4°C. Competition radioligand binding data was analyzed using a four parameter logistic equation and iterative curve-fitting techniques to obtain estimates of the IC50 and Hill slope. Kd values, determined from saturation binding studies were then used to calculate inhibition dissociation constants (Ki).
# [2] = target: T2, human H1 receptor (Homo sapiens, UniProt P35367); experiment: Cloned human H1 receptor binding assay, [3H]-mepyramine; details: COS-7 cells transfected with human H1 receptor, read-out: Receptor Affinity: pK Values H1 receptor (converted)
# T2 construct: expressed in transfected cells; host or cells: COS-7 (transient)
# Protocol: COS-7 cells were transiently transfected with an expression plasmid pCineohH1, pCineohH2, pCineohH3 and pCineohH4 encoding the human Histamine H1, H2. H3 or H4 receptor, respectively. Transfected cells were harvested after 48 h, homogenized in ice-cold 50 mM Na2/potassium phosphate buffer (pH 7.4) and used for radioligand binding studies. Cell homogenates (40 - 50 µg of protein) were incubated for 30 min at 25°C in 50 mM Na2/potassium phosphate buffer (pH 7.4) in 400 µl with the various concentrations of either [^3H]-mepyramine, [^3H]-thiotidine, [^3H]-R-α-Methylhistamine, and [^3H]-pyramilamine for cells expressing recombinant human H1, H2. H3 and H4 receptors, respectively. The nonspecific binding was defined in the presence of 1 µM mianserin. In displacement studies, cell homogenated were incubated either with 1 nM [^3H]-mepyramine, 15 nM [^3H]-thiotidine, 0.5 nM [^3H]-R-α-Methylhistamine, or 15 nM [^3H]-pyramilamine and increasing concentrations of competing ligands. The incubations were stopped by rapid dilution with 3 ml of ice-cold 50 mM Na2/potassium phosphate buffer (pH 7.4). The bound radioactivity was seperated by filatration through Whatman GF/C filters that had been treated with 0.3 % polyethyleneimine. Filters were washed twice in 3 ml of buffer and radioactivity retained on the filters was measured by liquid scinitllation counting. The concentration of 1-methyl-4-(3-ethoxy-9H-thioxanthene-9-ylidene)-piperidine producing 50% inhibition of binding (IC50) was determined using iterative curve fitting techniques.
# [3] = target: T3, 5-HT2C receptor (Homo sapiens, UniProt P28335); experiment: 5-HT2C receptor binding, [3H]mesulergine competition (counter screen); details: read-out: Receptor Affinity: pK Values 5NT2C receptor (converted)
# T3 construct: expressed in transfected cells; host or cells: Cos-7
# T3 sequence (P28335 33-458): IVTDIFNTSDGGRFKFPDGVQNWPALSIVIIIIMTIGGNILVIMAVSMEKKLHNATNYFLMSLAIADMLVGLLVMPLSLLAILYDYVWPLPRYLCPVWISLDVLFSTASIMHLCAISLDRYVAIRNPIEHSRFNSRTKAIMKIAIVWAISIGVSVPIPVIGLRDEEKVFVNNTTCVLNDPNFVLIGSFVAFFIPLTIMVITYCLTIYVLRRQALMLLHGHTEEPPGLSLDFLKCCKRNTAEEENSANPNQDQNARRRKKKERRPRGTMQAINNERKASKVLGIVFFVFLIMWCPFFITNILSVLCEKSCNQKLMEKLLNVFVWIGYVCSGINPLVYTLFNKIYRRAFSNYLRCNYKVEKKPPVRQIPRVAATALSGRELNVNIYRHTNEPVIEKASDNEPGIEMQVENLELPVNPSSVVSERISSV
# Protocol: 5-HT2C receptors were labelled in choroid plexus, Cos-7 cells expressing the human 5-HT2C receptor and in NIH-3T3 expressing the […]. Assays were conducted as described for the 5-HT2A receptor except that the radioligand was [^3H]mesulergine. The radioligand concentration for competition studies was approximately 0.2 nM while for saturation binding studies the concentration ranged from 0.1 to 18 nM. Non-specific binding was defined with 10 µM unlabelled mesulergine. Competition radioligand binding data was analyzed using a four parameter logistic equation and iterative curve-fitting techniques to obtain estimates of the IC50 and Hill slope. Kd values, determined from saturation binding studies were then used to calculate inhibition dissociation constants (Ki).
# [4] = target: T4, 5-HT2A receptor (Homo sapiens, UniProt P28223); experiment: 5-HT2A receptor binding, [3H]ketanserin competition (counter screen); details: read-out: Receptor Affinity: pK Values 5-HT2A receptor (converted)
# T4 construct: expressed in transfected cells; host or cells: HEK293
# Protocol: 5-HT2A receptors were labelled with [^3H]ketanserin in human cortex, in HEK293 cells expressing a cloned human 5-HT2A receptor and in HEK293 cells expressing the rat 5-HT2A receptor. For competition binding studies the ligand concentration was approximately 0.1 nM. For saturation binding studies concentrations of radioligand ranged from 0.01 nM to 2.0 nM. Assays were conducted in 0.5 ml of assay buffer (50 mM Tris-HCl, 4 mM calcium chloride, 0.1 % by weight ascorbic acid) (pH 7.4 at 4°C). Non-specifc binding was defined with […] unlabelled ketanserin. After a 60 min incubation at 32°C, membranes were harvested onto filters treated with 0.1 % by weight of polyethylenimine and the bound radioactivity was determined. Competition radioligand binding data was analyzed using a four parameter logistic equation and iterative curve-fitting techniques to obtain estimates of the IC50 and Hill slope. Kd values, determined from saturation binding studies were then used to calculate inhibition dissociation constants (Ki).
# T4 sequence (P28223 whole entry): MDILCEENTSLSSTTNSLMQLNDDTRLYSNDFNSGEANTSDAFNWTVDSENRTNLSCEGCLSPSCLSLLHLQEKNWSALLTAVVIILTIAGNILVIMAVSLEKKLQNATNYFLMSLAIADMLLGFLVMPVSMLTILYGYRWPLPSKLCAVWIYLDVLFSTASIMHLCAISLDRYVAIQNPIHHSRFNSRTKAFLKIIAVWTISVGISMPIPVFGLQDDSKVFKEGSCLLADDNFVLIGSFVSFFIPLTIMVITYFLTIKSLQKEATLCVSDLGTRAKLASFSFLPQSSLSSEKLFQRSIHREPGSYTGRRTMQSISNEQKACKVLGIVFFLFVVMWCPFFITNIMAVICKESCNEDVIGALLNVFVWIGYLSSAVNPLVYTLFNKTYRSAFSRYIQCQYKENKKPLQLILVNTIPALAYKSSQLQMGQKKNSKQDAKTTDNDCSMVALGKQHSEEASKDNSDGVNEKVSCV
# T1 sequence (P41595 whole entry): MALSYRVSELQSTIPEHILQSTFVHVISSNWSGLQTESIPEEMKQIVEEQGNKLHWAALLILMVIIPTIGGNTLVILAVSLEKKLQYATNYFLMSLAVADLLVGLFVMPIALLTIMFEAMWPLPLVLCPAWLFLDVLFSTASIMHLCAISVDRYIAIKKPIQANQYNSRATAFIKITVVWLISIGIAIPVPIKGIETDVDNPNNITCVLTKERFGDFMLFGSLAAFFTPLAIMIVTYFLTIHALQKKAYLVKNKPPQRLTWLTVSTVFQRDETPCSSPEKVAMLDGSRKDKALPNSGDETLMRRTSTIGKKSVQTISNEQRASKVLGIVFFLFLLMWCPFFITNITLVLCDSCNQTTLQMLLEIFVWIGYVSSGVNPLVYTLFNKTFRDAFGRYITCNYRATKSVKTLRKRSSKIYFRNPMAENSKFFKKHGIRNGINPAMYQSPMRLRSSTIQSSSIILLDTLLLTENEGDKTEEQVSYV
# T2 sequence (P35367 whole entry): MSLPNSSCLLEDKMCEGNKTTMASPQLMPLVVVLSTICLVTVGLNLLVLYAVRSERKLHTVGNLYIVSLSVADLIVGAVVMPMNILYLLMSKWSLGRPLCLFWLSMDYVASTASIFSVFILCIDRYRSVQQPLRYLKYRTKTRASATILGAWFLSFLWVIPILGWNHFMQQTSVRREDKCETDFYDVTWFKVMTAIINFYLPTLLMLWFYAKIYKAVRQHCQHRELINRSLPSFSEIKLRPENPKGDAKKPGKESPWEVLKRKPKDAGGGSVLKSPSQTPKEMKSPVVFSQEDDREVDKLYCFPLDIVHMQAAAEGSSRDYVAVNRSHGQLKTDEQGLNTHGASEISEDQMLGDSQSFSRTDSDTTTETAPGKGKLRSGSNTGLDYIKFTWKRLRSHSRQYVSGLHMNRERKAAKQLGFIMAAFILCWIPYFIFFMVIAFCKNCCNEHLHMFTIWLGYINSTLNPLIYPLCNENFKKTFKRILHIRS
Structure (SMILES),Ki [1],Ki [2],Ki [3],Ki [4]
COc1cccc2c1C(=C1CCN(C)CC1)c1ccc(C(C)C)cc1S2 [4-(6-Isopropyl-1-methoxy-thioxanthen-9-yliden)-1-methyl-piperidine],0.17 nM,10.5 nM,16.2 nM,0.741 nM
CCOc1ccc2c(c1)Sc1cccc(OC)c1C2=C1CCN(C)CC1 [4-(6-Ethoxy-1-methoxy-thioxanthen-9-yliden)-1-methyl-piperidine],0.0447 nM,3.72 nM,17 nM,1.02 nM
COc1ccc2c(c1)Sc1cccc(OC)c1C2=C1CCN(C)CC1 [4-(6-Methoxy-1-methoxy-thioxanthen-9-yliden)-1-methyl-piperidine],0.00871 nM,0.129 nM,1.55 nM,0.0427 nM
CCOc1ccc2c(c1)Sc1cccc(O)c1C2=C1CCN(C)CC1 [4-(6-Ethoxy-1-hydroxy-thioxanthen-9-yliden)-1-methyl-piperidine],0.0115 nM,36.3 nM,13.8 nM,1.51 nM
"CCOc1ccc2c(c1)Nc1ccccc1C2=C1CCN(C)CC1 [3-Ethoxy-9-(1-methyl-piperidine-4-ylidene)-9,10-dihydro-acridine]",0.741 nM,29.5 nM,37.2 nM,1.17 nM
CC(C)c1ccc2c(c1)Sc1cccc(O)c1C2=C1CCN(C)CC1 [4-(6-Isopropyl-1-hydroxy-thioxanthen-9-yliden)-1-methyl-piperidine],0.12 nM,35.5 nM,30.2 nM,0.776 nM

# Source: patent publication EP1438307B1, “DERIVATIVES OF 4-(THIO- OR SELENOXANTHENE-9-YLIDENE)-PIPERIDINE OR ACRIDINE AND ITS USE AS A SELECTIVE 5-HT2B RECEPTOR ANTAGONIST” (Biofrontera Pharmaceuticals GmbH, priority 2001, dated 2003)
